Data reported in US11053243B2 (Merck Sharp & Dohme Corp., priority 2009, dated 2021).

System: HCV genotype 1b replicon
Assay: HCV replicon assay, genotype 1b
Assay type: cell-based, hepatitis C virus
Conditions: genotype 1b replicon cells, 24 to 72 hours incubation, luciferase activity
Experimental: The HCV replicons and NS5A inhibitory activity of the present compounds may be tested using assays known in the art. HCV inhibitors, such as those described in the Examples herein have activities in genotype 1b, 2a and 1a replicon assays of from about 1 pM to about 1 μM. The assay is performed by incubating a replicon harboring cell-line in the presence of inhibitor for a set period of time and measuring the effect of the inhibitor on HCV replicon replication either directly by quantifying replicon RNA level, or indirectly by measuring enzymatic activity of a co-encoded reporter enzyme such as luciferase or β-lactamase. By performing a series of such measurements at different inhibitor concentrations, the effective inhibitory concentration of the inhibitor (EC50 or EC90) is determined. See Jan M. Vrolijk et al., A replicons-based bioassay for the measurement of interferons in patients with chronic hepatitis C, 110 J. VIROLOGICAL METHODS 201 (2003). Such assays may also be run in an automated format for high through-put screening. See Paul Zuck et al., A cell-based β-lactamase reporter gene assay for the identification of inhibitors of hepatitis C virus replication, 334 ANALYTICAL BIOCHEMISTRY 344 (2004).
Measurement of inhibition by compounds was performed using the HCV replicon system. Several different replicons encoding different HCV genotypes or mutations were used. In addition, potency measurements were made using different formats of the replicon assay, including different ways of measurements and different plating formats. See Jan M. Vrolijk et al., A replicons-based bioassay for the measurement of interferons in patients with chronic hepatitis C, 110 J. VIROLOGICAL METHODS 201 (2003); Steven S. Carroll et al., Inhibition of Hepatitis C Virus RNA Replication by 2′-Modified Nucleoside Analogs, 278(14) J. BIOLOGICAL CHEMISTRY 11979 (2003). However, the underlying principles are common to all of these determinations, and are outlined below.
Stable neomycin phosphotransferase encoding replicon-harboring cell lines were used, so all cell lines were maintained under G418 selection prior to the assay. In some cases, the cell lines encoded a luciferase:Neor fusion and could be assayed either directly by determination of RNA copy number, or indirectly through measurement of the luciferase activity.
To initiate an assay, replicon cells were plated in the presence of a dilution series of test compound in the absence of G418. Typically, the assays were performed in a 96-well plate format for manual operation, or a 384-well plate in an automated assay. Replicon cells and compound were incubated for 24 to 72 hours. At the end of the assay, cells are washed free of media and compound and then lysed. Luciferase activity was measured using a conventional luciferase assay. EC50 determinations were calculated as a percent of a DMSO control by fitting the data to a four parameter fit function.
The activity table below provides representative data illustrating observed activity against genotype 1b.

| Structure (SMILES) | EC50 (Hepatitis C virus) | EC50 |
| --- | --- | --- |
| CC(C)(C)OC(=O)N[C@@H](C(=O)N1CCC[C@H]1C(=O)Nc1ccc(-c2[nH]c3ccc(NC(=O)[C@@H]4CCCN4C(=O)[C@H](NC(=O)OC(C)(C)C)c4ccccc4)cc3c2C(=O)NC2CC2)cc1)c1ccccc1 [Example 158, tert-butyl {(1R)-2-[(2S)-2-({4-[5-({[(2S)-1-{(2R)-2-[(tert-butoxycarbonyl)amino]-2-phenylacetyl}pyrrolidin-2-yl]carbonyl}amino)-3-(cyclopropylcarbamoyl)-1H-indol-2-yl]phenyl}carbamoyl)pyrrolidin-1-yl]-2-oxo-1-phenylethyl}carbamate] | 0.5 nM |  |
| Cc1cccc(-c2c(-c3ccc(NC(=O)[C@@H]4CCCN4C(=O)[C@H](NC(=O)OC(C)(C)C)c4ccccc4)cc3)[nH]c3ccc(NC(=O)[C@@H]4CCCN4C(=O)[C@H](NC(=O)OC(C)(C)C)c4ccccc4)cc23)c1 [Example 169, tert-butyl {(1R)-2-[(2S)-2-({4-[5-({[(2S)-1-{(2R)-2-[(tert-butoxycarbonyl)amino]-2-phenylacetyl}pyrrolidin-2-yl]carbonyl}amino)-3-(3-methylphenyl)-1H-indol-2-yl]phenyl}carbamoyl)pyrrolidin-1-yl]-2-oxo-1-phenylethyl}carbamate] | 0.004 nM |  |
| CC(=O)NCC#Cc1cc2cc(NC(=O)[C@@H]3CCCN3C(=O)[C@H](NC(=O)OC(C)(C)C)c3ccccc3)ccc2[nH]1 [Example 178, tert-butyl {(1R)-2-[(2S)-2-({2-[3-(acetylamino)prop-1-yn-1-yl]-1H-indol-5-yl}carbamoyl)pyrrolidin-1-yl]-2-oxo-1-phenylethyl}carbamate] | 317 nM |  |
| CC(C)(C)OC(=O)N[C@H](C(=O)N1CCC[C@H]1C(=O)Nc1ccc(-c2cc3cc(C#N)ccc3[nH]2)cc1)c1ccccc1 [Example 186, tert-butyl {(1S)-2-[(2S)-2-{[4-(5-cyano-1H-indol-2-yl)phenyl]carbamoyl}pyrrolidin-1-yl]-2-oxo-1-phenylethyl}carbamate] | 0.015 nM |  |
| COC(=O)N[C@H](C(=O)N1CCC[C@H]1c1ncc(-c2ccc3c(c2)OCn2c-3cc3cc(-c4cnc([C@@H]5CCCN5C(=O)[C@@H](NC(=O)OC)C(C)C)[nH]4)ccc32)[nH]1)C(C)C [Example 189a, methyl [(2S)-1-{(2S)-2-[5-(10-{2-[(2S)-1-{(2S)-2-[(methoxycarbonyl)amino]-3-methylbutanoyl}pyrrolidin-2-yl]-1H-imidazol-5-yl}indolo[1,2-c] [1,3]benzoxazin-3-yl)-1H-imidazol-2-yl]pyrrolidin-1-yl}-3-methyl-1-oxobutan-2-yl]carbamate] | 0.15 nM |  |
| COC(=O)N[C@H](C(=O)N1CCC[C@H]1c1ncc(-c2ccc3c(c2)OCn2c-3c(F)c3cc(-c4cnc([C@@H]5CCCN5C(=O)[C@@H](NC(=O)OC)C(C)C)[nH]4)ccc32)[nH]1)C(C)C [Example 189b] | 0.001 nM |  |
| CN(C)[C@@H](C(=O)N1CCC[C@H]1C(=O)Nc1ccc2[nH]c(-c3nc4cc(NC(=O)[C@@H]5CCCN5C(=O)[C@@H](c5ccccc5)N(C)C)ccc4o3)cc2c1)c1ccccc1 [Example 190, (2S)-1-[(2R)-2-(dimethylamino)-2-phenylacetyl]-N-(2-{5-[({(2S)-1-[(2R)-2-(dimethylamino)-2-phenylacetyl]pyrrolidin-2-yl}carbonyl)amino]-1,3-benzoxazol-2-yl}-1H-indol-5-yl)pyrrolidine-2-carboxamide] |  | 0.067 nM |
| CCN(CC)[C@@H](C(=O)N1CCC[C@H]1C(=O)Nc1ccc2[nH]c(-c3ccc(-c4nnc([C@@H]5CCCN5C(=O)[C@@H](c5ccccc5)N(CC)CC)o4)cc3)cc2c1)c1ccccc1 [Example 191, 1-[(2R)-2-(diethylamino)-2-phenylacetyl]-N-{2-[4-(5-{(2S)-1-[(2R)-2-(diethylamino)-2-phenylacetyl]pyrrolidin-2-yl}-1,3,4-oxadiazol-2-yl)phenyl]-1H-indol-5-yl}-L-prolinamide] | 0.02 nM |  |
| COC(=O)N[C@H](C(=O)N1CCC[C@H]1c1ncc(-c2ccc(-c3cc4cc(-c5cnc([C@@H]6CCCN6C(=O)[C@@H](NC(=O)OC)C(C)C)[nH]5)ccc4o3)cc2)[nH]1)C(C)C [Example 192, Methyl {(2S)-1-[(2S)-2-{5-[4-(5-{2-[(2S)-1-{(2S)-2-[(methoxy-carbonyl)amino]-3-methylbutanoyl}pyrrolidin-2-yl]-1H-imidazol-5-yl}-1-benzofuran-2-yl)phenyl]-1H-imidazol-2-yl}pyrrolidin-1-yl]-3-methyl-1-oxobutan-2-yl}carbamate] | 0.002 nM |  |
| CCN(CC)[C@@H](C(=O)N1CCC[C@H]1c1ncc(-c2ccc(-c3cc4cc(-c5cnc([C@@H]6CCCN6C(=O)[C@@H](c6ccccc6)N(CC)CC)[nH]5)ccc4o3)cc2)[nH]1)c1ccccc1 [Example 193, (2R)-2-(diethylamino)-1-[(2S)-2-(5-{4-[5-(2-{(2S)-1-[(2R)-2-(diethylamino)-2-phenylacetyl]pyrrolidin-2-yl}-1H-imidazol-5-yl)-1-benzofuran-2-yl]phenyl}-1H-imidazol-2-yl)pyrrolidin-1-yl]-2-phenylethanone] | 0.05 nM |  |
| COC(=O)N[C@@H](C(=O)N1CCC[C@H]1c1ncc(-c2ccc(-c3nc4cc(-c5cnc([C@@H]6CCCN6C(=O)[C@H](NC(=O)OC)c6ccccc6)[nH]5)ccc4o3)cc2)[nH]1)c1ccccc1 [Example 213, Methyl {(1R)-2-[(2S)-2-{5-[4-(5-{2-[(2S)-1-{(2R)-2-[(methoxycarbonyl)amino]-2-phenylacetyl}pyrrolidin-2-yl]-1H-imidazol-5-yl}-1,3-benzoxazol-2-yl)phenyl]-1H-imidazol-2-yl}pyrrolidin-1-yl]-2-oxo-1-phenylethyl}carbamate] | 0.009 nM |  |
